These results are taken from patent US9932340B2, “Substituted indoles” (AbbVie Inc., priority 2014, dated 2018).

What is called IC50 is the concentration that gives 50% inhibition.

SUV420H1 enzyme, sequence (Q4FZB7 whole entry): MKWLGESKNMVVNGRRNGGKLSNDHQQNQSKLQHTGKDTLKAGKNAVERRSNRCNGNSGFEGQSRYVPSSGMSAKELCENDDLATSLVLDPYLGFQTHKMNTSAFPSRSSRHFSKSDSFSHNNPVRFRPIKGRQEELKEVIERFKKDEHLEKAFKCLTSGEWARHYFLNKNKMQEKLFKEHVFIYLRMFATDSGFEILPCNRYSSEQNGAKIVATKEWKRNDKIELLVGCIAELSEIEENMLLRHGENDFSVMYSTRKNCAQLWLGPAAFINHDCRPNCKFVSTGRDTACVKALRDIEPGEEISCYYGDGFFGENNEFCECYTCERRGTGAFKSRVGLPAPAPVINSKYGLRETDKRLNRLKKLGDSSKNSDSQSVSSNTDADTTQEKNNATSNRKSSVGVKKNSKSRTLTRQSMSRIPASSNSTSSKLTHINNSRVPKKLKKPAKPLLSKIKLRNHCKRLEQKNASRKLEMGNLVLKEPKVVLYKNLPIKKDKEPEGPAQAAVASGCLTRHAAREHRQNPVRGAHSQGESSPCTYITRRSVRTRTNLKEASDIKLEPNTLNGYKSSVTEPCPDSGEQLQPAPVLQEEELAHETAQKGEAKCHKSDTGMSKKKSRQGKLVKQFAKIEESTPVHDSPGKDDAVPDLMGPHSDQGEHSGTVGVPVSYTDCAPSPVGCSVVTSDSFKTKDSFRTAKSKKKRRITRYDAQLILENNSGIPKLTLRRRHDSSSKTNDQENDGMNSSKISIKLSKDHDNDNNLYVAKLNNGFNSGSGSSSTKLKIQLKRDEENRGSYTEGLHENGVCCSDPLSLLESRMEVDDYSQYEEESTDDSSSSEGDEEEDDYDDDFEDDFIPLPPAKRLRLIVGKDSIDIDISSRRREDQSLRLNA

For this assay, the target named is SUV420H1 enzyme (Homo sapiens, UniProt Q4FZB7). Briefly: TR-FRET SAH SUV420H1 enzyme inhibition assay. The class given is biochemical. The note with it: Histone Peptide H4(8-30)me1 and SAM, overnight at room temp, TR-FRET detection of SAH, read-out: TR-FRET SAH_SUV420H1 IC50. In a few lines:
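SUV420H1 (90 nM) preincubated 30 min with compound (3-fold dilutions, 50 to 0.00075 μM), then H4(8-30)me1 peptide 5 nM and SAM 4 nM added, overnight at room temp. SAH product detected by TR-FRET with Tb anti-SAH antibody and Oregon Green-SAH in RIPA buffer, 4 h; IC50 from Hill fit, asymptotes fixed 0-100%.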
For orientation: Time-resolved FRET reads energy transfer from a long-lived donor to a nearby acceptor.
As for `CS(=O)(=O)c1ccccc1C(=O)NCc1cc2cc(Cl)cc(Cn3cnc4c(N)ncnc43)c2[nH]1` [Example 265, N-({7-[(6-amino-9H-purin-9-yl)methyl]-5-chloro-1H-indol-2-yl}methyl)-2-(methylsulfonyl)benzamide], the IC50 turned out to be 2.14 µM. In the case of `CC(C)(C)CC(=O)NCc1cc2cc(Cl)cc(Cn3cnc4c(N)ncnc43)c2[nH]1` [Example 104, N-({7-[(6-amino-9H-purin-9-yl)methyl]-5-chloro-1H-indol-2-yl}methyl)-3,3-dimethylbutanamide], the IC50 is 18.2 µM. For `NCc1cc2cc(-c3ccncc3)cc(Cn3cnc4c(N)ncnc43)c2[nH]1` [Example 21, 9-{[2-(aminomethyl)-5-(pyridin-4-yl)-1H-indol-7-yl]methyl}-9H-purin-6-amine] the value was 0.78 µM; for `CC(C)C(=O)NCc1cc2cc(Cl)cc(Cn3cnc4c(N)ncnc43)c2[nH]1` [Example 99, N-({7-[(6-amino-9H-purin-9-yl)methyl]-5-chloro-1H-indol-2-yl}methyl)-2-methylpropanamide], 25.1 µM; for `Nc1ncnc2c1ncn2Cc1cc(Cl)cc2cc(CNC(=O)CC3CCCCC3)[nH]c12` [Example 133, N-({7-[(6-amino-9H-purin-9-yl)methyl]-5-chloro-1H-indol-2-yl}methyl)-2-cyclohexylacetamide], 31.9 µM. For `Cn1ccc(C(=O)NCc2cc3cc(Cl)cc(Cn4cnc5c(N)ncnc54)c3[nH]2)n1` [Example 151, N-({7-[(6-amino-9H-purin-9-yl)methyl]-5-chloro-1H-indol-2-yl}methyl)-1-methyl-1H-pyrazole-3-carboxamide] the value was 6.75 µM. For `Nc1ncnc2c1ncn2Cc1cc(Cl)cc2cc(CNC(=O)c3ccc4nc[nH]c4n3)[nH]c12` [Example 330, N-({7-[(6-amino-9H-purin-9-yl)methyl]-5-chloro-1H-indol-2-yl}methyl)-3H-imidazo[4,5-b]pyridine-5-carboxamide] the value was 1.06 µM; for `Cc1c(C)n(C)c2ccc(C(=O)NCc3cc4cc(Cl)cc(Cn5cnc6c(N)ncnc65)c4[nH]3)cc12` [Example 378, N-({7-[(6-amino-9H-purin-9-yl)methyl]-5-chloro-1H-indol-2-yl}methyl)-1,2,3-trimethyl-1H-indole-5-carboxamide], 6.26 µM.

As to `Nc1ncnc2c1ncn2Cc1cc(Cl)cc2cc(CNC(=O)Cc3ccc(F)cc3)[nH]c12` [Example 254, N-({7-[(6-amino-9H-purin-9-yl)methyl]-5-chloro-1H-indol-2-yl}methyl)-2-(4-fluorophenyl)acetamide], the concentration for half-maximal inhibition (IC50) was above 50 µM. For `Cc1nc2c(cnn2C(C)C)cc1C(=O)NCc1cc2cc(Cl)cc(Cn3cnc4c(N)ncnc43)c2[nH]1` [Example 377, N-({7-[(6-amino-9H-purin-9-yl)methyl]-5-chloro-1H-indol-2-yl}methyl)-6-methyl-1-(propan-2-yl)-1H-pyrazolo[3,4-b]pyridine-5-carboxamide] the value was 2.71 µM. For `CS(=O)(=O)c1ccc(CNCc2cc3cc(Cl)cc(Cn4cnc5c(N)ncnc54)c3[nH]2)cc1F` [Example 264, 9-{[5-chloro-2-({[3-fluoro-4-(methylsulfonyl)benzyl]amino}methyl)-1H-indol-7-yl]methyl}-9H-purin-6-amine] the value was 3.23 µM; for `N#Cc1c[nH]c2ccc(C(=O)NCc3cc4cc(Cl)cc(Cn5cnc6c(N)ncnc65)c4[nH]3)cc12` [Example 369, N-({7-[(6-amino-9H-purin-9-yl)methyl]-5-chloro-1H-indol-2-yl}methyl)-3-cyano-1H-indole-5-carboxamide], above 50 µM; for `Cc1cccc(C)c1C(=O)NCc1cc2cc(Cl)cc(Cn3cnc4c(N)ncnc43)c2[nH]1` [Example 295, N-({7-[(6-amino-9H-purin-9-yl)methyl]-5-chloro-1H-indol-2-yl}methyl)-2,6-dimethylbenzamide], 0.607 µM. For `CC(C)c1ccc(Cn2cnc3c(N)ncnc32)c2[nH]c(CN)cc12` [Example 66, 9-{[2-(aminomethyl)-4-(propan-2-yl)-1H-indol-7-yl]methyl}-9H-purin-6-amine] the value was 4.29 µM; for `COc1ccc(-c2cc(Cn3cnc4c(N)ncnc43)c3[nH]c(CN)cc3c2)cc1` [Example 34, 9-{[2-(aminomethyl)-5-(4-methoxyphenyl)-1H-indol-7-yl]methyl}-9H-purin-6-amine], 0.723 µM. As to `Nc1ncnc2c1ncn2Cc1cc(Cl)cc2cc(CNC(=O)Cc3ccccn3)[nH]c12` [Example 230, N-({7-[(6-amino-9H-purin-9-yl)methyl]-5-chloro-1H-indol-2-yl}methyl)-2-(pyridin-2-yl)acetamide], the concentration for half-maximal inhibition (IC50) was found to be 16.7 µM.

As for `Nc1ncnc2c1ncn2Cc1cc(Cl)cc2cc(CNC(=O)c3cnc4[nH]ccc4c3)[nH]c12` [Example 347, N-({7-[(6-amino-9H-purin-9-yl)methyl]-5-chloro-1H-indol-2-yl}methyl)-1H-pyrrolo[2,3-b]pyridine-5-carboxamide], the half-inhibitory concentration (IC50) is 29.1 µM. For the compound `NCc1cc2c(-c3ccc(F)cc3)ccc(Cn3cnc4c(N)ncnc43)c2[nH]1` [Example 73, 9-{[2-(aminomethyl)-4-(4-fluorophenyl)-1H-indol-7-yl]methyl}-9H-purin-6-amine], the IC50 was found to be 0.722 µM.

For the compound `Cc1n[nH]c2ncc(C(=O)NCc3cc4cc(Cl)cc(Cn5cnc6c(N)ncnc65)c4[nH]3)cc12` [Example 353, N-({7-[(6-amino-9H-purin-9-yl)methyl]-5-chloro-1H-indol-2-yl}methyl)-3-methyl-1H-pyrazolo[3,4-b]pyridine-5-carboxamide], the IC50 is above 50 µM.

As to `CC(=O)N1CC=C(c2cc(Cn3cnc4c(N)ncnc43)c3[nH]c(CNC(=O)c4ccc(C#N)cc4Cl)cc3c2)CC1` [Example 279, N-({5-(1-acetyl-1,2,3,6-tetrahydropyridin-4-yl)-7-[(6-amino-9H-purin-9-yl)methyl]-1H-indol-2-yl}methyl)-2-chloro-4-cyanobenzamide], the IC50 was 0.0493 µM. For `Cc1nnccc1C(=O)NCc1cc2cc(C3=CCN(S(C)(=O)=O)CC3)cc(Cn3cnc4c(N)ncnc43)c2[nH]1` [Example 202, N-({7-[(6-amino-9H-purin-9-yl)methyl]-5-[1-(methylsulfonyl)-1,2,3,6-tetrahydropyridin-4-yl]-1H-indol-2-yl}methyl)-3-methylpyridazine-4-carboxamide] the value was 0.0641 µM. For `Nc1ncnc2c1ncn2Cc1cc(Cl)cc2cc(CN3CCS(=O)(=O)CC3)[nH]c12` [Example 125, 9-({5-chloro-2-[(1,1-dioxidothiomorpholin-4-yl)methyl]-1H-indol-7-yl}methyl)-9H-purin-6-amine] the value was 4.62 µM; for `NCc1cc2c(-c3ccccc3F)ccc(Cn3cnc4c(N)ncnc43)c2[nH]1` [Example 74, 9-{[2-(aminomethyl)-4-(2-fluorophenyl)-1H-indol-7-yl]methyl}-9H-purin-6-amine], 1.18 µM. For `Nc1ncnc2c1ncn2Cc1cc(Cl)cc2cc(CNC(=O)CN3CCCC3)[nH]c12` [Example 120, N-({7-[(6-amino-9H-purin-9-yl)methyl]-5-chloro-1H-indol-2-yl}methyl)-2-(pyrrolidin-1-yl)acetamide] the value was 1.49 µM. `Cn1cccc1C(=O)NCc1cc2cc(Cl)cc(Cn3cnc4c(N)ncnc43)c2[nH]1` [Example 160, N-({7-[(6-amino-9H-purin-9-yl)methyl]-5-chloro-1H-indol-2-yl}methyl)-1-methyl-1H-pyrrole-2-carboxamide]: the IC50 is 16.8 µM.

Consider `Nc1ncnc2c1ncn2Cc1cc(Cl)cc2cc(CNC(=O)CC3CC3)[nH]c12` [Example 110, N-({7-[(6-amino-9H-purin-9-yl)methyl]-5-chloro-1H-indol-2-yl}methyl)-2-cyclopropylacetamide], for which the IC50 was 10.7 µM. For `Nc1ncnc2c1ncn2Cc1cccc2cc[nH]c12` [Example 5, 9-(1H-indol-7-ylmethyl)-9H-purin-6-amine] the value was 13.9 µM; for `Nc1ncnc2c1ncn2Cc1cccc2c(Br)c[nH]c12` [Example 1, 9-[(3-bromo-1H-indol-7-yl)methyl]-9H-purin-6-amine], above 50 µM. For `Cc1cccc(-c2ccc(Cn3cnc4c(N)ncnc43)c3[nH]c(CN)cc23)c1` [Example 76, 9-{[2-(aminomethyl)-4-(3-methylphenyl)-1H-indol-7-yl]methyl}-9H-purin-6-amine] the value was 1.33 µM.

As to `Nc1ncnc2c1ncn2Cc1cc(Cl)cc2cc(CNC(=O)c3ccc4cc[nH]c4c3)[nH]c12` [Example 356, N-({7-[(6-amino-9H-purin-9-yl)methyl]-5-chloro-1H-indol-2-yl}methyl)-1H-indole-6-carboxamide], the half-inhibitory concentration (IC50) amounted to 2.65 µM. Regarding `CC(C)CCC(=O)NCc1cc2cc(Cl)cc(Cn3cnc4c(N)ncnc43)c2[nH]1` [Example 105, N-({7-[(6-amino-9H-purin-9-yl)methyl]-5-chloro-1H-indol-2-yl}methyl)-4-methylpentanamide], the IC50 was 8.17 µM. For `NCc1cc2cc(-c3cccc(N4CCOCC4)c3)cc(Cn3cnc4c(N)ncnc43)c2[nH]1` [Example 52, 9-({2-(aminomethyl)-5-[3-(morpholin-4-yl)phenyl]-1H-indol-7-yl}methyl)-9H-purin-6-amine] the value was 0.244 µM; for `CC(=O)N1CCC=C(c2cc(Cn3cnc4c(N)ncnc43)c3[nH]c(CNC(=O)c4cc(C)nnc4C)cc3c2)C1` [Example 238], 0.0457 µM. For the compound `N#Cc1ccc(C(=O)NCc2cc3cc(Cl)cc(Cn4cnc5c(N)ncnc54)c3[nH]2)cc1` [Example 272, N-({7-[(6-amino-9H-purin-9-yl)methyl]-5-chloro-1H-indol-2-yl}methyl)-4-cyanobenzamide], the concentration for half-maximal inhibition (IC50) is 0.378 µM.

Consider `CN(C)C(=O)CCc1c[nH]c2c(Cn3cnc4c(N)ncnc43)cccc12` [Example 3, 3-{7-[(6-amino-9H-purin-9-yl)methyl]-1H-indol-3-yl}-N,N-dimethylpropanamide], for which the half-inhibitory concentration (IC50) was found to be 35 µM.
